These results are taken from publication PMC4323000 (Oncotarget, 2015).

The test system of one data set is HEK-pcDNA3.1 xenografts. In words: Chemosensitization study, just-established ABCG2-negative tumors.
The nature of data set [1]: Pharmacokinetic study of MBL-II-141, CPT-11 and SN-38 (blood, liver, brain; LC-MS/MS).
Protocol: In order to achieve possible cumulative effects, reiterated administrations (two or three) were carried out with a 4 h time interval between administrations. Blood samples were collected at either 1 h or 4 h after the last injection.
Total blood samples were collected using dried heparinized syringes, avoiding modification of samples. Blood and plasma were stored at −80°C. […] Tissues were crushed using a dried cold system.
Both assays were performed on a C18 column HypersilGold, (ThermoElectron), 3.0 μm, (100 mm × 2.1 mm i.d.). The mass spectrometry analysis was performed in positive ion mode with electrospray source. […] A volume of 50 μL of whole blood or tissue solution was introduced into a conic centrifuge and 50 μL of solution of the internal standard and 300 μL of cold acetonitrile were added. The sample was mixed and centrifuged for 10 min at 13000 g at 5°C. […] The residues were resuspended in 100 μL of mobile phase and 10 μL were injected into the HPLC device. […] When the concentration was over the upper standard concentration, a dilution of the sample was performed using blank whole blood or appropriate tissues. Peak area ratios of compound to the respective internal standard measured at each nominal concentration were used to construct weighted (1/concentration) least-square linear regression curves. […] Results in tissues were normalized to cellular protein content. Results in tissues were normalized to cellular protein content (C1600 Abott technology).
The next data set concerns HEK293 ABCG2 xenografts. In words: Chemosensitization of well-established (8 mm) ABCG2-positive tumors. The note with it: for slope of tumor growth: solvents 61 ± 3.
Another data set deals with HEK293-pcDNA3.1 cells. The note with it: at 100 μM; cited from earlier work.
In another data set the test system is HEK-ABCG2 xenografts. In words: Chemosensitization of just-established ABCG2-positive tumors.
In the next data set the test system is HEK293 cells. The note with it: at 100 μM; cited from earlier work.
A short description of data set [2]: Solubility for experimental formulation. It is filed as physicochemical. The method, then:
The experimental formulation of MBL-II-141 was determined according to its solubility properties.

Data set [3] deals with ABCG2. The note with it: cited from earlier work.
The nature of data set [4]: MBL-II-141 oral absorption study (force-feeding versus IP). It is filed as in vivo, mouse. The method, then: The availability of MBL-II-141 was evaluated by force-feeding (n = 4), and compared to intraperitoneal injection (n = 4). CD1 mice were treated with 10 mg/kg of MBL-II-141. After 4 h of treatment, total blood was collected from animals treated with heparin. Samples were stored at −80°C until quantification.
Assay accuracy was in the range of 91–108%. […] Results in tissues were normalized to cellular protein content.

For the next data set, the system named is ABCC1. The note with it: mitoxantrone or calcein as substrates; cited from earlier work.
Data set [5] deals with ABCG2. The note with it: cited from earlier work. This is another data set of the same source.
A further data set relates to SCID mice. In words: MBL-II-141 tolerance assay. It is filed as in vivo.
The subject of the next data set is HEK293-ABCG2 cells. The note with it: at 100 μM; cited from earlier work.
Details of data set [6]: method as in PMID 23150210. The note with it: P.O.; ref [25]; cited from earlier work.
For data set [7] the following is noted: oral; ref per compound in Table 2; cited from earlier work.
In data set [8] the test system is ABCG2-overexpressing tumors. The note with it: cited from earlier work; for In vivo Impact on Tumor growth: ref per compound in Table 2.
The conditions of data set [9]: human; GF120918 oral; ref [13],[21],[35],[45]–[48] (GF120918), [26],[50],[51] (Telatinib); cited from earlier work.
Where [10] appears, read: MBL-II-141 alone 10 mg/kg + PBS.
The mark [11] stands for this setting: MBL-II-141 10 mg/kg IP, SCID mice.
[12] abbreviates: combination MBL-II-141 10 mg/kg + CPT-11 20 mg/kg.

pIC50: −log10 of the molar value. Like-named read-outs stand apart in the source and are kept apart here.

Protocol for HEK-ABCG2 xenografts: (§1) 4.10^6 HEK-pcDNA3.1 or HEK-ABCG2 cells were sub-cutaneously injected into one flank of each SCID mouse, in solution with 50% matrigel. After the apparition of most tumors, mice were randomly distributed into 4 groups of 20 animals (10 ABCG2 negative and 10 ABCG2-positive tumors). […] Two independent injections were carried out per mouse.
(§2) Treatments were intraperitoneally administered three times a week until mice sacrifice. […] Finally, mice were sacrificed when the tumor diameter reached 17 mm.
(§3) Growth models. Tumor growth curves were modeled with GraphPad© Software. Gaussian distribution models were obtained according to the equation Y = Amplitude*exp (−0.5*((X-Mean)/SD)^2). The amplitude was the height of the center of the distribution in Y units. Mean was the X value at the center of the distribution. SD was a measure of the width of the distribution, in the same units as X. Another model was applied for sum of two Gaussian distributions with Y = one + two (One = Amplitude 1*exp(−0.5*((X-Mean1)/SD1)^2) and Two = Amplitude 2*exp(−0.5*((X-Mean2)/SD2)^2)). Amplitudes were the heights of the center of the distribution in Y units. Means were the X values at the center of the two distributions. SDs were measures of the widths of the distributions, in the same units as X.
(§4) Paired t-test. The statistical test used was the paired t-test. It was applied for all data of growth tumor experiments and pharmacokinetics data.
Protocol for HEK-pcDNA3.1 xenografts: as §1, §2, §3, §4
Description for HEK293 ABCG2 xenografts: 1.10^6 HEK ABCG2 cells were sub-cutaneously injected into one flank of each SCID mouse, in solution with 30% matrigel. […] Each group contained 10 mice. The same protocol of treatment and follow-up were applied.
Tumor growth curves were modeled with GraphPad© Software. Gaussian distribution models were obtained according to the equation Y = Amplitude*exp (−0.5*((X-Mean)/SD)^2). The amplitude was the height of the center of the distribution in Y units. Mean was the X value at the center of the distribution. SD was a measure of the width of the distribution, in the same units as X. Another model was applied for sum of two Gaussian distributions with Y = one + two (One = Amplitude 1*exp(−0.5*((X-Mean1)/SD1)^2) and Two = Amplitude 2*exp(−0.5*((X-Mean2)/SD2)^2)). Amplitudes were the heights of the center of the distribution in Y units. Means were the X values at the center of the two distributions. SDs were measures of the widths of the distributions, in the same units as X.
The statistical test used was the paired t-test. It was applied for all data of growth tumor experiments and pharmacokinetics data.

On to `COc1ccc2[nH]cc(CCNC(=O)c3cc(=O)c4c(OCc5ccc(Br)cc5)cccc4o3)c2c1` [MBL-II-141, 5-(4-bromobenzyloxy)-2-(2-(5-methoxyindolyl)ethyl-1-carbonyl)-4H-chromen-4-one], for which the “Mean of differences between tumor growth curves, vehicles versus MBL-II-141 alone” value with HEK-pcDNA3.1 xenografts (HEK-pcDNA3.1, paired t-test P (two tailed) 0.0006, 95% CI 171.0 to 512.9) was determined as 342; in the data set on HEK-ABCG2 xenografts (HEK-ABCG2, paired t-test P (two tailed) 0.015, 95% CI 16.93 to 138.1), 77.51. In addition, the “effect on growth of ABCG2-negative tumors” value in the data set on HEK-pcDNA3.1 xenografts (setting [10]) was “slight inhibitory effect”. The “blood level after the third injection versus one or two injection(s)” value in data set [1] (10 mg/kg IP, injections separated by 4 h, blood 1 h or 4 h after last injection) is listed as “slight increase”. Moreover, the “Brain/Plasma ratio, fold-change induced by the combination treatment” value in data set [1] (30 min) came out at 1.1 fold-change; in data set [1] (60 min), 0.3 fold-change; in [1] (120 min), 0.4 fold-change; in [1] (240 min), 3.0 fold-change. Further, the “Liver/Plasma ratio, fold-change induced by the combination treatment” value in data set [1] (30 min) was 2.5 fold-change; in data set [1] (60 min), 0.8 fold-change; in data set [1] (120 min), 1.1 fold-change; in [1] (240 min), 3.0 fold-change. The “level in total blood at 6 h” value in data set [1] (setting [11]) is listed as “below the detection limit”. In addition, the “time of highest level in total blood” value in data set [1] (setting [11]) is reported as 0.5 h. In addition, the “distribution into the brain” value in [1] (MBL-II-141 10 mg/kg IP, SCID mice, 10 mg/kg) is listed as “low, but still detectable”. In data set [1] (of CPT-11, SCID mice), the “In vivo Impact on Pharmacokinetics” value is recorded as “CPT-11: Yes”. Moreover, the “Mean of differences in Brain levels, compound alone versus CPT-11 + MBL-II-141” value in [1] (paired t-test over time, P (two tailed): CPT-11 0.0416, MBL-II-141 0.1059) is 38.53. Besides, the “Mean of differences in Blood levels, compound alone versus CPT-11 + MBL-II-141” value in data set [1] (paired t-test over time, P (two tailed): CPT-11 0.3616, SN-38 0.0299, MBL-II-141 0.1555) was 122.0. Besides, the “Mean of differences in Liver levels, compound alone versus CPT-11 + MBL-II-141” value in data set [1] (paired t-test over time, P (two tailed): CPT-11 0.6878, SN-38 0.1727, MBL-II-141 0.1046) is listed as -39.78. Moreover, in the data set on HEK293 ABCG2 xenografts (setting [12]), the mice survival entry is given as “markedly increased”. Moreover, the “time at which tumors reached maximal size versus CPT-11 alone” value with HEK293 ABCG2 xenografts (setting [12]) is recorded as “about two weeks later”. Further, the “slope of tumor growth” value is listed as 41 ± 1 mm^3/day with HEK293 ABCG2 xenografts (setting [12]) and 68 ± 3 mm^3/day with HEK293 ABCG2 xenografts (single agent (MBL-II-141 10 mg/kg or CPT-11 20 mg/kg) three times a week). Besides, in the data set with HEK293 ABCG2 xenografts (paired t-test P (two tailed) < 0.0001, 95% CI 54.71 to 135.0), the “Mean of differences between tumor growth curves, Solvents versus MBL-II-141” value is listed as 94.84. Also, the “Mean of differences between tumor growth curves, CPT-11 versus MBL-II-141 + CPT-11” value in the data set with HEK293 ABCG2 xenografts (paired t-test P (two tailed) < 0.0001, 95% CI 162.2 to 329.4) is 245.8. In addition, the “Mean of differences between tumor growth curves, Solvents versus MBL-II-141 + CPT-11” value in the data set on HEK293 ABCG2 xenografts (paired t-test P (two tailed) < 0.0001, 95% CI 177.3 to 460.0) came out at 318.6. The “Mean of differences between tumor growth curves, MBL-II-141 versus MBL-II-141 + CPT-11” value with HEK293 ABCG2 xenografts (paired t-test P (two tailed) < 0.0001, 95% CI 240.1 to 562.7) amounted to 401.4. The cell survival in the data set with HEK293-pcDNA3.1 cells is on record as 75%; with HEK293-ABCG2 cells it was 60%. For the same molecule, in the data set with HEK-ABCG2 xenografts (MBL-II-141 10 mg/kg + CPT-11 20 mg/kg IP three times a week, freshly implanted tumors, SCID mice), the “ABCG2-positive tumors whose growth was completely blocked” value is reported as 90%. Also, the “survival rate of mice bearing ABCG2-positive tumors” value in the data set on HEK-ABCG2 xenografts (MBL-II-141 10 mg/kg + CPT-11 20 mg/kg, even 40 days after end of treatment) is recorded as 90%. For the same molecule, the “inhibitory effect on growth of ABCG2-positive tumors” value in the data set on HEK-ABCG2 xenografts (setting [10]) was “not observed”. For the same molecule, the “In vivo Impact on Tumor growth” value with HEK-ABCG2 xenografts (with CPT-11, ABCG2-positive xenografts) is recorded as “Yes”. Moreover, the “cell death of HEK293 cells” value in the data set with HEK293 cells is listed as “less than 25%”. The “maximal solubility in DMSO” value in [2] came to 250 mg/mL. In the data set on ABCG2 [3], the “type of ABCG2 inhibition towards mitoxantrone” value is listed as “non-competitive”. For the same molecule, the negative-log IC50 (pIC50) with ABCG2 [3] (read-out: IC50, inhibition of ABCG2 (mitoxantrone efflux), substrate mitoxantrone) was 6.96. Besides, the “blood level at 4 h under force-feeding in comparison to IP route (lower)” value in data set [4] (10 mg/kg, difference not significant) is “approximately 2 fold”. Further, the “In vivo Toxicity, Acute” value in [4] (oral (force-feeding), mice) is reported as more than 10 mg/kg oral; in the data set with SCID mice (I.P., mice), more than 50 mg/kg I.P. Also, the “effect on ABCC1-mediated transport” value in the data set with ABCC1 is recorded as “without any effect”. In addition, in the data set on ABCG2 [5] (MBL-II-141), the “In vitro ABCG2 Specificity” value is listed as “Yes”. Also, in the data set with SCID mice (10 mg/kg per mouse), the “acute toxicity in pilot study” value is given as “no acute toxicity”. Also, in the data set on SCID mice (50 mg/kg 3 times a week for 1 month), the “finding in the peritoneal cavity” value was “slight deposit”. The “macroscopic analysis of organs (brain, heart, lungs, kidneys, liver and spleen)” value in the data set with SCID mice (10, 30 or 50 mg/kg with CPT-11 20 mg/kg) was “no apparent lesions”. For the same molecule, the “behavior (physical activity, appearance)” value in the data set on SCID mice (IP 10, 30 or 50 mg/kg in combination with CPT-11 20 mg/kg) was “did not show any modification in behavior”. The tolerance entry with SCID mice (at 50 mg/kg, preliminary data) is “well tolerated”. Also, the “complete blood count proportion” value with SCID mice (regardless of the administered dose of MBL-II-141 (10, 30, 50 mg/kg)) is recorded as “unchanged”. Also, the “safety on reiterated administrations” value in the data set on SCID mice (reiterated administrations) is reported as “without any associated animal death or loss of weight”.

Regarding `CNC(=O)c1cc(Oc2ccc(NC(=O)Nc3ccc(Cl)c(C(F)(F)F)c3)cc2)ccn1` [Sorafenib], the “In vivo Toxicity, Chronic” value in [6] is more than 25 mg/kg P.O. For the same molecule, the “In vivo Toxicity, Acute” value in data set [7] is listed as more than 25 mg/kg oral. Also, the “In vivo Impact on Tumor growth” value in data set [8] was “Yes”. Besides, in the data set with ABCG2 [5] (ref per compound in Table 2), the “In vitro ABCG2 Specificity” value is “No”.

As for `CNC(=O)c1cc(COc2nnc(Nc3ccc(Cl)cc3)c3ccoc23)ccn1` [Telatinib], in data set [9], the “In vivo Toxicity, Chronic” value was >1 500 mg (human). Moreover, the “In vivo Toxicity, Acute” value in data set [7] was more than 15 mg/kg oral. In addition, in [8], the “In vivo Impact on Tumor growth” value was “Yes”. The “effect on ABCG2-overexpressing tumors” value in data set [8] (telatinib 15 mg/kg in combination with doxorubicin […], xenografted nude mouse model) is “significantly decrease the growth rate and tumor size”. The “In vitro ABCG2 Specificity” value in the data set with ABCG2 [5] (ref per compound in Table 2) is “No”.

As usually defined, the pIC50 is −log10 of the IC50, conventionally taken in molar units.
